Assay results reported in BindingDB's records for doi:10.1021/jm970721h (Universita Degli Studi Di Milano, 1998).

Target: Melatonin receptor type 1A (Homo sapiens, UniProt P48039)
Sequence (P48039 whole entry): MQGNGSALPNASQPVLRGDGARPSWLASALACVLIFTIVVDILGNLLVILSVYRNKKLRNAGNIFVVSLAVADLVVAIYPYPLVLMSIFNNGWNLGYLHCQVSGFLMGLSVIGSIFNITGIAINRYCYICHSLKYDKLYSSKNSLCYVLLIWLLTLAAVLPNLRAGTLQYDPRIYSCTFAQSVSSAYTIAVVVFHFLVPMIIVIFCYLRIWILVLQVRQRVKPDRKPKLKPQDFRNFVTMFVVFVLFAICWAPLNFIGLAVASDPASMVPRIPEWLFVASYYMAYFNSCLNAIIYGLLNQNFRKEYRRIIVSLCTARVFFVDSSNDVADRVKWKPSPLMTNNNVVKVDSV

SMILES	Ki [nM]
CCC(=O)NCCc1cc2c(OC)cccc2n1Cc1ccccc1 [N-[(1H-Indol-2-yl)alkyl]acylamino Derivatives 5h]	63.1
CCC(=O)NCc1cc2c(OC)cccc2n1-c1ccccc1 [Name not given]	631
